# From PMC5613693, “Interactions of Desmethoxyyangonin, a Secondary Metabolite from Renealmia alpinia, with Human Monoamine Oxidase-A and Oxidase-B” (Evidence-based Complementary and Alternative Medicine : eCAM, 2017)
# Like-named read-outs stand apart in the source and are kept apart here.
# Tests used:
# Type in all cases: biochemical
# recombinant human MAO-A [1] = target: T1, recombinant human MAO-A (Homo sapiens, UniProt P21397); assay: Fluorometric kynuramine deamination assay, MAO-A inhibition (IC50)
# T1 construct: purchased BD Biosciences (Bedford, MA, USA); host or cells: baculovirus (Autographa californica) infected insect cells (BTI-TN-5B1-4)
# T1 sequence (P21397 1-527): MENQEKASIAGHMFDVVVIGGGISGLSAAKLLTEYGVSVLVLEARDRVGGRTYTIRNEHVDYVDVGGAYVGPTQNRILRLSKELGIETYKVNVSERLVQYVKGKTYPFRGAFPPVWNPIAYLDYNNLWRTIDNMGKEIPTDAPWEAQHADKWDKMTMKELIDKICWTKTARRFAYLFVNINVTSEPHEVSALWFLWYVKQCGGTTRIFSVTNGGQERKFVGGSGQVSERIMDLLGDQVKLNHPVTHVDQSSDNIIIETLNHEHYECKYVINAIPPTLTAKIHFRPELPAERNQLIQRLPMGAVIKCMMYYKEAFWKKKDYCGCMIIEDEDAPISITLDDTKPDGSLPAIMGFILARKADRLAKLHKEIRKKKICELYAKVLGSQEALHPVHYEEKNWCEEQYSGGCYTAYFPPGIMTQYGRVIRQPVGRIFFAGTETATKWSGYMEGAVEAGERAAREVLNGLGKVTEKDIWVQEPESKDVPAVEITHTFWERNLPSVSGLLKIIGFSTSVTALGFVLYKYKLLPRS
# Procedure: (§1) Pure recombinant human monoamine oxidases (MAO-A and MAO-B) enzymes overexpressed in baculovirus (Autographa californica) infected insect cells (BTI-TN-5B1-4) were purchased from BD Biosciences, (Bedford, MA, USA).
# (§2) Stock solutions of the test compounds/extracts were prepared in DMSO and diluted further in 0.1 M potassium phosphate buffer (pH 7.4) to obtain the desired concentrations. MAO-A and MAO-B activities were determined by fluorometric kynuramine deamination assay set up in 384-well solid white flat-bottom plates. MAO-A and MAO-B inhibition activities (IC50 values) were determined using fixed concentration of the substrate kynuramine and varying concentrations of the test compounds or extracts. The enzyme reactions were carried out in 0.1 M potassium phosphate buffer (pH-7.4). […] The reaction mixtures with buffer/substrate/inhibitor were preincubated for 10 minutes at 37°C, followed by addition of MAO-A and MAO-B to initiate the reaction. The solid white microplates were incubated for 20 minutes at 37°C and the enzymatic reaction was stopped by addition of 28 µL of 2 N NaOH to each well. The deaminated product of kynuramine, which spontaneously cyclizes to 4-hydroxyquinoline, was measured fluorometrically at 320 nm excitation and 380 nm emission wavelengths with a plate reader (SpectraMax M5, Molecular Devices, Sunnyvale, CA, USA). The IC50 values were computed by XL-Fit® from the dose-response inhibition curves.
# recombinant human MAO-B [2] = target: T2, recombinant human MAO-B (Homo sapiens, UniProt P27338); assay: Fluorometric kynuramine deamination assay, MAO-B inhibition (IC50); settings: for IC50: kynuramine 50 μM, mean ± SD of triplicate, read-out: Monoamine oxidase-B IC50; for Index MAO-A/B: ratio of IC50 MAO-A / IC50 MAO-B
# T2 construct: purchased BD Biosciences (Bedford, MA, USA); host or cells: baculovirus (Autographa californica) infected insect cells (BTI-TN-5B1-4)
# T2 sequence (P27338 1-520): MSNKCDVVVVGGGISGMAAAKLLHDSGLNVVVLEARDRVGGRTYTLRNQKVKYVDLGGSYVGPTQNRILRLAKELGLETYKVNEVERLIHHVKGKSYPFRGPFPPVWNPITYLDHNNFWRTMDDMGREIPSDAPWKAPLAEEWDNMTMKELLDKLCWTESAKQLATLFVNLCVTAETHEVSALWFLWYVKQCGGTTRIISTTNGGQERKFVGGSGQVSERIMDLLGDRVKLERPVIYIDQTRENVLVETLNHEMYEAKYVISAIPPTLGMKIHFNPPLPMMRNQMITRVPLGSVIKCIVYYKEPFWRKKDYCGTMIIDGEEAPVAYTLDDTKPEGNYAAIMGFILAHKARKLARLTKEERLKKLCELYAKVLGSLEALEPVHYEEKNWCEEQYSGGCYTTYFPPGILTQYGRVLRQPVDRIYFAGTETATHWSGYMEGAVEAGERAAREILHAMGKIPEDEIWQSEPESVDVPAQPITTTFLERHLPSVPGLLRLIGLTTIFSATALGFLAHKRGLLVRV
# Procedure: as §1, §2
# recombinant human MAO-A [3] = target: T1, recombinant human MAO-A; assay: Enzyme kinetics and mechanism of inhibition of MAO-A; settings: Lineweaver-Burk / dialysis
# Procedure: (§3) Results are presented as double reciprocal Lineweaver-Burk plots. The kinetic data, namely, KM, Vmax, and Ki values, were calculated by SigmaPlot 12.3 with enzyme-kinetics module using Michaelis-Menten equation. The results were also analyzed for the type of inhibition.
# (§4) To comprehend the type of inhibition, we examined 6 against both MAO-A and MAO-B at varying concentrations of kynuramine, a nonselective substrate. Desmethoxyyangonin 6 was tested at two concentrations: one above and the other below the IC50 value. For each experiment, three sets of assays were done at variable concentrations of the substrate: two concentrations of the inhibitor/compound and one control without inhibitors. The results are presented as double reciprocal Lineweaver-Burk plots and the kinetic data, namely, KM, Vmax, and Ki values, were computed by SigmaPlot 12.3 with enzyme-kinetics module using Michaelis-Menten equation (Table 2).
# recombinant human MAO-B [4] = target: T2, recombinant human MAO-B; assay: Enzyme kinetics and mechanism of inhibition of MAO-B; settings: for Type of Inhibition, Monoamine oxidase-B: Lineweaver-Burk / dialysis; for Selectivity / higher affinity for MAO-B than MAO-A (by Ki): from Ki values
# Procedure: as §3, §4
# recombinant human MAO-A [5] = target: T1, recombinant human MAO-A; assay: Equilibrium dialysis assay of enzyme-inhibitor complex, MAO-A
# Procedure: (§5) Binding and inhibition of MAO-A and MAO-B with desmethoxyyangonin 6 were further examined by incubating the enzyme with high concentrations of the inhibitor followed by extensive dialysis of the enzyme-inhibitor complex and recovery of enzyme activities. MAO-A (0.05 mg/mL protein) was incubated with desmethoxyyangonin 6 (20 μM and 100.0 μM) and MAO-B (0.05 mg/mL protein) was incubated with desmethoxyyangonin 6 (1.50 μM and 20.0 μM) in an enzyme incubation mixture of 1 mL containing 100 mM potassium phosphate buffer (pH 7.4). Formation of enzyme-inhibitor complex was allowed by incubation of the reaction mixtures for 20 min at 37°C. The enzyme-inhibitor mixtures after incubation were chilled, transferred to the dialysis bags, and dialyzed against 25 mM potassium phosphate buffer (pH 7.4) for 14–16 hours at 4°C (changing the dialysis buffer three times). The enzyme catalytic activities were measured before and after dialysis.
# (§6) The control enzymes without inhibitor were also run concurrently. […] The binding characteristics of desmethoxyyangonin 6 with MAO-A and MAO-B were examined by equilibrium dialysis to measure dissociation of the enzyme-inhibitor complex (Figure 6). MAO-A and MAO-B were incubated with high concentration of desmethoxyyangonin 6 for 20 minutes at 37°C to allow binding of inhibitor with the enzyme and formation of enzyme-inhibitor complex. The mixtures of enzyme-inhibitor complex were dialyzed overnight at 4°C against 25 mM KHPO4 (pH-7.4) buffer. The enzyme activities were examined before and after dialysis. Through overnight dialysis, the recombinant human MAO-A enzyme lost about 10–15% of activity. Incubation of MAO-A with 20.0 and 100 μM concentrations of desmethoxyyangonin 6 inhibited more than 65% of the enzyme activity (Figure 6). After the dialysis, more than 90% catalytic activity of MAO-A was recovered from enzyme-desmethoxyyangonin 6 incubation mixtures. Similarly, MAO-B lost about 10–15% of the enzyme activity during overnight dialysis.
# recombinant human MAO-B [6] = target: T2, recombinant human MAO-B; assay: Equilibrium dialysis assay of enzyme-inhibitor complex, MAO-B
# Procedure: as §5, §6
# recombinant human MAO-A [7] = target: T1, recombinant human MAO-A; assay: Time-dependent enzyme inhibition assay, MAO-A; settings: 7.50 μM, preincubation 0-15 min
# Procedure: (§7) MAO-A and MAO-B enzymes were preincubated for different time periods (0–15 min) with the inhibitor. […] Controls without inhibitors were also run simultaneously. The enzyme activities were determined as described above.
# as §6
# recombinant human MAO-B [8] = target: T2, recombinant human MAO-B; assay: Time-dependent enzyme inhibition assay, MAO-B; settings: 0.40 μM, preincubation 0-15 min
# Procedure: as §7, §6
# [9] = kynuramine 80 μM, mean ± SD of triplicate, read-out: Monoamine oxidase-A IC50
# [10] = equilibrium dialysis dissociation
compound,measurement,setting,value
"COc1ccc([C@@H]2CC(=O)c3c(O)cc(OC)cc3O2)cc1 [4′-Methyl ether sakuranetin, 2, naringenin 7,4′-dimethyl ether]",IC50,recombinant human MAO-A [1]; [9],31.4 ± 4.58 µM
same,IC50,recombinant human MAO-B [2],> 100 µM
"COc1cc(O)c2c(c1)O[C@H](c1ccccc1)CC2=O [Pinostrobin, 1, pinostrobin]",IC50,recombinant human MAO-A [1]; [9],23.9 ± 1.35 µM
same,IC50,recombinant human MAO-B [2],45.5 ± 4.31 µM
same,Index MAO-A/B,recombinant human MAO-B [2],0.524
"COc1cc(O)c(C(=O)/C=C/c2ccccc2)c(O)c1 [Pinostrobin chalcone, 4, 2′,6′-dihydroxy-4′-methoxychalcone]",IC50,recombinant human MAO-A [1]; [9],6.33 ± 0.206 µM
same,IC50,recombinant human MAO-B [2],10 ± 3.24 µM
"COc1cc(/C=C/c2ccccc2)oc(=O)c1 [Desmethoxyyangonin, 6, desmethoxyyangonin]",MAO inhibition in words,recombinant human MAO-A [1]; MAO-A and MAO-B inhibition assays,potent MAO inhibition
same,IC50,recombinant human MAO-A [1]; [9],1.85 ± 0.086 µM
same,Preferential inhibition of MAO-B than MAO-A (by IC50),recombinant human MAO-B [2]; from IC50 values,15 fold
same,IC50,recombinant human MAO-B [2],0.123 µM
same,"Type of Inhibition, Monoamine oxidase-A",recombinant human MAO-A [3],Mixed/reversible
same,"Type of Inhibition, Monoamine oxidase-A",recombinant human MAO-A [3]; listed as desmethoxyyangonin 6,mixed inhibitor
same,"Type of Inhibition, Monoamine oxidase-B",recombinant human MAO-B [4],Competitive/reversible
same,"Type of Inhibition, Monoamine oxidase-B",recombinant human MAO-B [4]; listed as 6,competitive
same,Selectivity / higher affinity for MAO-B than MAO-A (by Ki),recombinant human MAO-B [4]; listed as Compound 6,about 30 fold
same,Selectivity / higher affinity for MAO-B than MAO-A (by Ki),recombinant human MAO-B [4]; listed as desmethoxyyangonin 6,29 fold
same,Inhibition of MAO-A enzyme activity before dialysis,"recombinant human MAO-A [5]; 20.0 and 100 μM, 20 min at 37°C",more than 65%
same,Catalytic activity of MAO-A recovered after dialysis,"recombinant human MAO-A [5]; 20.0 and 100 μM, overnight dialysis at 4°C",more than 90%
same,Reversibility of MAO-A inhibition,recombinant human MAO-A [5]; [10],reversible binding
same,Inhibition of MAO-B enzyme activity before dialysis,"recombinant human MAO-B [6]; 1.50 and 20.0 μM, 20 min at 37°C",more than 90%
same,Recovery of MAO-B enzyme activity after dialysis,"recombinant human MAO-B [6]; 1.50 and 20.0 μM, overnight dialysis at 4°C",fully recovered
same,Reversibility of MAO-B inhibition,recombinant human MAO-B [6]; [10],reversible binding
same,Time dependence of MAO-A inhibition,recombinant human MAO-A [7],not time-dependent
same,Time dependence of MAO-B inhibition,recombinant human MAO-B [8],not time-dependent
"O[C@H](CCc1ccccc1)C[C@@H](O)CCc1ccccc1 [Yashabushidiol A, 5, 3,5-heptanediol-1,7-diphenyl]",IC50,recombinant human MAO-A [1]; [9],> 100 µM
same,IC50,recombinant human MAO-B [2],35.38 ± 0.121 µM
"COc1cc(O)c2c(c1)O[C@H](c1ccc(O)cc1)CC2=O [Sakuranetin, 3, naringenin 7-methyl ether]",IC50,recombinant human MAO-A [1],45.5 ± 5.71 µM
same,IC50,recombinant human MAO-B [2],36.5 ± 6.63 µM
same,Index MAO-A/B,recombinant human MAO-B [2],1.246
